Assay [1] concerns MC3T3-E1. The experiment in a line: Induction of osteoblast proliferation in mouse MC3T3-E1 cells assessed as growth rate relative to untreated control at 10^-5 mol/L after 48 hrs by MTT assay. In kind it is functional. Conditions: MC3T3-E1, 48 h, read-out: Activity.
The test system of assay [2] is MC3T3-E1. The experiment in a line: Induction of osteoblast proliferation in mouse MC3T3-E1 cells assessed a growth rate relative to untreated control at 10^-6 mol/L after 48 hrs by MTT assay. In kind it is functional.
Assay [3] has as its system MC3T3-E1. The experiment in a line: Induction of osteoblast proliferation in mouse MC3T3-E1 cells assessed a growth rate relative to untreated control at 10^-7 mol/L after 48 hrs by MTT assay. Format: functional.
For assay [4], the system named is MC3T3-E1. Kind of assay: Induction of osteoblast proliferation in mouse MC3T3-E1 cells assessed a growth rate relative to untreated control at 10^-8 mol/L after 48 hrs by MTT assay. Format: functional.
Assay [5] relates to Bone. The experiment in a line: Anti-osteoporotic activity in bovine bone assessed as bone resorption of osteoclast at 1 x 10^-8 mol/L after 8 days by toluidine blue staining-based method. Format: functional, tissue-based. Conditions: Bos taurus; Bone element.
Assay [6] concerns Osteoclast. Kind of assay: Anti-osteoporotic activity assessed as osteoclast differentiation in rabbit bone marrow-derived osteoclast at 1 x 10^-5 mol/L after 8 days by TRAP staining-based phase-contrast microscopic method. Format: functional, cell-based. Conditions: Oryctolagus cuniculus.
Assay [7] has as its system Bone. The experiment in a line: Anti-osteoporotic activity in bovine bone assessed as bone resorption of osteoclast at 1 x 10^-5 mol/L after 8 days by toluidine blue staining-based method. In kind it is functional, tissue-based. Conditions: Bos taurus; Bone element.
The subject of assay [8] is Osteoclast. The experiment in a line: Inhibition of New Zealand white rabbit bone marrow-derived osteoclast differentiation assessed as reduction in TRAP activity in at 1 x 10^-5 mol/L measured on day 8 post dose by StrACP assay. Format: functional, cell-based. Conditions: Oryctolagus cuniculus.
The subject of assay [9] is Osteoclast. The experiment in a line: Inhibition of New Zealand white rabbit bone marrow-derived osteoclast differentiation assessed as reduction in TRAP positive cells at 1 x 10^-5 to 1 x 10^-8 mol/L measured on day 8 post dose by leukocyte acid phosphatase-staining based phase contrast microscopy. Format: functional, cell-based. Conditions: Oryctolagus cuniculus.
Assay [10] deals with Osteoclast. The experiment in a line: Inhibition of New Zealand white rabbit bone marrow-derived osteoclast differentiation assessed as reduction in TRAP activity in at 1 x 10^-6 to 1 x 10^-8 mol/L measured on day 8 post dose by StrACP assay. In kind it is functional, cell-based. Conditions: Oryctolagus cuniculus.

Structures are written as SMILES. The source made the active and inactive calls. The rule behind the calls is not given here.

As to `CC1(C)C=Cc2c(cc(O)c3c(=O)c(CCC(C)(O)c4ccc(F)cc4)c(-c4ccccc4Cl)oc23)O1` (centres undefined), the growth at 10 µM in the assay on MC3T3-E1 [1] was determined as 15.9%. For the same compound, the Activity with MC3T3-E1 [2] came to 6.35%; in the assay with MC3T3-E1 [3], 6.89%; in the assay with MC3T3-E1 [4], 6.02%.
Taken in the same sequence, the figures for `CC1(C)C=Cc2c(cc3oc(-c4ccccc4Br)c(CCC(C)(O)c4ccccc4)c(=O)c3c2O)O1` (centres undefined) were 12.1%, 17.66%, 6.08% and 10.13%.
For `CC(=O)CCc1c(-c2ccccc2Br)oc2c3c(cc(O)c2c1=O)OC(C)(C)C=C3`, in that order: 12.8%, 0.83%, 0.46% and 2.42%.
For the compound `CC(C)=CCc1c(-c2ccc(O)cc2O)oc2c3c(cc(O)c2c1=O)OC(C)(C)C=C3` [MORUSIN], the growth at 10 µM in the assay on MC3T3-E1 [1] turned out to be 16%. Further, the figures for the Activity in the assay with MC3T3-E1 [2], in the assay with MC3T3-E1 [3] and in the assay on MC3T3-E1 [4] were 9.57%, 3.88% and 7.13%, respectively.
In the case of `CC(=O)CCc1c(-c2ccccc2Br)oc2cc3c(c(O)c2c1=O)C=CC(C)(C)O3`, the growth at 10 µM in the assay on MC3T3-E1 [1] was found to be 10.6%. The Activity in the assay on MC3T3-E1 [2] is 0.88%; with MC3T3-E1 [3], 0.79%; with MC3T3-E1 [4], 0.38%.
For `CC(C)(O)CCc1c(-c2ccccc2Cl)oc2cc3c(c(O)c2c1=O)C=CC(C)(C)O3`, in that order: 14.3%, 4.61%, 3.74% and 6.39%.
In the case of `CC(O)CCc1c(-c2ccccc2Br)oc2c3c(cc(O)c2c1=O)OC(C)(C)C=C3` (centres undefined), the growth at 10 µM with MC3T3-E1 [1] worked out at 19.5%. The Activity was determined as 4.94% in the assay with MC3T3-E1 [2], 6.7% with MC3T3-E1 [3] and 7.02% with MC3T3-E1 [4].
Taken in the same sequence, the figures for `CC1(C)C=Cc2c(cc3oc(-c4ccccc4Cl)c(CCC(C)(O)c4ccc(F)cc4)c(=O)c3c2O)O1` (centres undefined) were 4.88%, 11.03%, 6.45% and 6.83%.
Taken in the same sequence, the figures for `CC(O)CCc1c(-c2ccccc2Cl)oc2c3c(cc(O)c2c1=O)OC(C)(C)C=C3` (centres undefined) were 24%, 5.18%, 2.37% and 0.53%.
On to `CC(C)(O)CCc1c(-c2ccccc2Cl)oc2c3c(cc(O)c2c1=O)OC(C)(C)C=C3`, for which the growth at 10 µM with MC3T3-E1 [1] came to 4.29%. In addition, the figures for the Activity in the assay on MC3T3-E1 [2], in the assay on MC3T3-E1 [3] and in the assay with MC3T3-E1 [4] were 2.97%, 1.78% and 3.08%, respectively.
For the compound `CC(C)Oc1ccc2c(=O)c(-c3ccccc3)coc2c1` [IPRIFLAVONE], in the assay on MC3T3-E1 [4], the Activity was 4.09 - 17.3%. Moreover, the result with Bone [5] was Active.
In the case of `CC1(C)C=Cc2c(cc(O)c3c(=O)c(CCC(C)(O)c4ccc(F)cc4)c(-c4ccccc4Br)oc23)O1` (centres undefined), in the assay on MC3T3-E1 [1], the growth at 10 µM turned out to be 17.2%. Also, the Activity is on record as 7.88% in the assay with MC3T3-E1 [2], 6.42% in the assay on MC3T3-E1 [3] and 4.55% with MC3T3-E1 [4]. The outcome in the assay on Osteoclast [6] and with Bone [7] was Active.
Regarding `CC(=O)CCc1c(-c2ccccc2Cl)oc2cc3c(c(O)c2c1=O)C=CC(C)(C)O3`, in the assay with MC3T3-E1 [1], the growth at 10 µM turned out to be 7.62%. The Activity in the assay on MC3T3-E1 [2] worked out at 9%; in the assay with MC3T3-E1 [3], 9.58%; in the assay with MC3T3-E1 [4], 0.85%.
In the case of `CC1(C)C=Cc2c(cc(O)c3c(=O)c(CCC(C)(O)c4ccccc4)c(-c4ccccc4Br)oc23)O1` (centres undefined), the growth at 10 µM in the assay with MC3T3-E1 [1] stood at 21.7%. Besides, the Activity in the assay with MC3T3-E1 [2] came to 16.65%; with MC3T3-E1 [3], 14.74%; in the assay on MC3T3-E1 [4] it was 8.56%. For the same compound, the result in the assay with Osteoclast [6] and with Bone [7] was Active.
Consider `CC(O)CCc1c(-c2ccccc2Cl)oc2cc3c(c(O)c2c1=O)C=CC(C)(C)O3` (centres undefined), for which the growth at 10 µM with MC3T3-E1 [1] turned out to be 27.1%. The Activity in the assay with MC3T3-E1 [2] is listed as 5.63%; with MC3T3-E1 [3] it was 7.45%; with MC3T3-E1 [4], 11.08%. The outcome in the assay on Osteoclast [6] and with Bone [7] was Active.
In the case of `CC(C)(O)CCc1c(-c2ccccc2Br)oc2cc3c(c(O)c2c1=O)C=CC(C)(C)O3`, the growth at 10 µM in the assay on MC3T3-E1 [1] was 13.4%. Besides, the Activity in the assay on MC3T3-E1 [2] is 7.7%; in the assay on MC3T3-E1 [3], 4.54%; in the assay on MC3T3-E1 [4], 8.54%. Besides, the outcome in the assay on Osteoclast [6] and with Bone [7] was Active.
Turning to `CC1(C)C=Cc2c(cc3oc(-c4ccccc4Br)c(CCC(C)(O)c4ccc(F)cc4)c(=O)c3c2O)O1` (centres undefined), the growth at 10 µM with MC3T3-E1 [1] was -4.88%. Also, the values for the Activity in the assay with MC3T3-E1 [2], in the assay with MC3T3-E1 [3] and with MC3T3-E1 [4] were 1.49%, 6.25% and 1.91%, respectively.
For `CC(C)(O)CCc1c(-c2ccc(O)cc2O)oc2cc3c(c(O)c2c1=O)C=CC(C)(C)O3`, the growth at 10 µM in the assay on MC3T3-E1 [1] was -4.81%. The Activity in the assay with MC3T3-E1 [2] turned out to be 6.69%; in the assay on MC3T3-E1 [3], 5.88%; in the assay on MC3T3-E1 [4], 2.26%. Further, the inhibition entry with Osteoclast [8] and in the assay with Osteoclast [9] was “Active” in each case. Further, in the assay on Bone [7], the result was Active. Also, the inhibition result in the assay with Osteoclast [10] is “inactive”.
Consider `CC(O)CCc1c(-c2ccccc2Br)oc2cc3c(c(O)c2c1=O)C=CC(C)(C)O3` (centres undefined), for which the growth at 10 µM in the assay with MC3T3-E1 [1] was 10.5%. The Activity in the assay with MC3T3-E1 [2] was 2.8%; in the assay on MC3T3-E1 [3], 2.87%; in the assay on MC3T3-E1 [4], -0.52%.
For `CC(C)(O)CCc1c(-c2ccccc2Br)oc2c3c(cc(O)c2c1=O)OC(C)(C)C=C3`, in that order: 2.6%, 0.33%, 4.22% and 3.41%.
For `CC(=O)CCc1c(-c2ccccc2Cl)oc2c3c(cc(O)c2c1=O)OC(C)(C)C=C3`, the growth at 10 µM with MC3T3-E1 [1] was found to be 18.3%. In addition, the Activity in the assay with MC3T3-E1 [2] worked out at 6.01%; in the assay with MC3T3-E1 [3], 5.13%; with MC3T3-E1 [4] it was 0.06%.

Values taken from ChEMBL document CHEMBL4177558, “Rapid, microwave-accelerated synthesis and anti-osteoporosis activities evaluation of Morusin scaffolds and Morusignin L scaffolds” (2017).
